Source: the supplement of paper PMC10307832

Legend:
Test in all cases: relative viability (nuclei count vs DMSO), 5 days (fraction); higher = more cells survive
[1] = compound: C1COCCN1C2=NC(=NC3=C2OC4=C3C=CC=N4)C5=CC(=CC=C5)NC(=O)C6=CN=C(C=C6)N + CS(=O)(=O)CCNCc1ccc(-c2ccc3ncnc(Nc4ccc(OCc5cccc(F)c5)c(Cl)c4)c3c2)o1 [Lapatinib] (partner 2 µM)
Outline: (§1)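 Dosing by pin tool came one day after lung cancer cell lines were seeded in 1536-well plates, using either one drug or a fixed anchor-drug dose plus five library-drug doses (not always all listed) in √10 steps. After 5 days, nuclei were counted on 4× images. Relative viability is treated-well nuclei count divided by vehicle-well nuclei count, and values are medians of duplicate plates.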

[2] = compound: C1COCCN1C2=NC(=NC3=C2OC4=C3C=CC=N4)C5=CC(=CC=C5)NC(=O)C6=CN=C(C=C6)N + NC(=O)Nc1cc(-c2cccc(F)c2)sc1C(=O)N[C@H]1CCCNC1 [AZD7762] (partner 0.2 µM)
Outline: as §1

Entinostat + Trametinib = compound: Nc1ccccc1NC(=O)c1ccc(CNC(=O)OCc2cccnc2)cc1 [Entinostat] + CC(=O)Nc1cccc(-n2c(=O)n(C3CC3)c(=O)c3c(Nc4ccc(I)cc4F)n(C)c(=O)c(C)c32)c1 [Trametinib] (partner 0.02 µM)
Outline: as §1

Entinostat + Olaparib = compound: Nc1ccccc1NC(=O)c1ccc(CNC(=O)OCc2cccnc2)cc1 [Entinostat] + O=C(c1cc(Cc2n[nH]c(=O)c3ccccc23)ccc1F)N1CCN(C(=O)C2CC2)CC1 [Olaparib] (partner 8 µM)
Outline: as §1

Row | Cell Line | relative viability ([1]; first compound 0.02 µM) | relative viability ([1]; first compound 0.06325 µM) | relative viability ([1]; first compound 0.2 µM) | relative viability ([1]; first compound 0.6325 µM) | relative viability ([1]; first compound 2 µM) | relative viability ([2]; first compound 0.02 µM) | relative viability ([2]; first compound 0.06325 µM) | relative viability ([2]; first compound 0.2 µM) | relative viability ([2]; first compound 0.6325 µM) | relative viability ([2]; first compound 2 µM) | relative viability (Entinostat + Trametinib; first compound 0.02 µM) | relative viability (Entinostat + Trametinib; first compound 0.06325 µM) | relative viability (Entinostat + Trametinib; first compound 0.2 µM) | relative viability (Entinostat + Trametinib; first compound 0.6325 µM) | relative viability (Entinostat + Trametinib; first compound 2 µM) | relative viability (Entinostat + Olaparib; first compound 0.02 µM) | relative viability (Entinostat + Olaparib; first compound 0.06325 µM) | relative viability (Entinostat + Olaparib; first compound 0.2 µM) | relative viability (Entinostat + Olaparib; first compound 0.6325 µM) | relative viability (Entinostat + Olaparib; first compound 2 µM)
1 | 201T | 0.957 | 1.02 | 0.984 | 1.04 | 1.01 | 0.655 | 0.626 | 0.603 | 0.509 | 0.534 | 0.746 | 0.72 | 0.684 | 0.716 | 0.545 | 0.838 | 0.775 | 0.694 | 0.489 | 0.459
2 | A549 | 1.07 | 0.925 | 0.911 | 0.921 | 0.468 | – | – | – | – | – | – | – | – | – | – | 0.332 | 0.375 | 0.334 | 0.258 | 0.232
3 | A-427 | 1.06 | 1.04 | 0.91 | 1.1 | 0.677 | 0.788 | 0.746 | 0.673 | 0.655 | 0.689 | 0.882 | 0.921 | 0.866 | 0.639 | 0.523 | 0.721 | 0.717 | 0.678 | 0.554 | 0.553
4 | ABC-1 | 1.38 | 1.14 | 1.07 | 1.21 | 0.871 | 0.793 | 0.638 | 0.608 | 1.03 | 0.684 | – | – | – | – | – | 0.508 | 1.11 | 0.758 | 0.993 | 1.07
5 | BEN | 0.765 | 0.702 | 0.744 | 0.673 | 0.588 | 0.726 | 0.636 | 0.66 | 0.621 | 0.657 | 1.18 | 1.04 | 0.79 | 0.63 | 0.441 | 1.22 | 1.15 | 1.09 | 0.64 | 0.371
6 | CAL-12T | 0.663 | 0.701 | 0.632 | 0.604 | 0.472 | 0.632 | 0.617 | 0.632 | 0.673 | 0.49 | 0.362 | 0.306 | 0.355 | 0.297 | 0.252 | 0.728 | 0.781 | 0.854 | 0.767 | 0.572
7 | COR-L23 | 0.946 | 1.26 | 1.15 | 1.24 | 0.451 | – | – | – | – | – | 0.507 | 0.614 | 0.544 | 0.318 | 0.189 | 0.323 | 0.311 | 0.347 | 0.184 | 0.127
8 | COR-L 105 | 0.391 | 0.318 | 0.34 | 0.346 | 0.289 | – | – | – | – | – | 0.475 | 0.45 | 0.45 | 0.413 | 0.406 | 0.683 | 0.825 | 0.773 | 0.483 | 0.407
9 | Calu-6 | 1.3 | 1.1 | 1.12 | 0.98 | 0.742 | – | – | – | – | – | – | – | – | – | – | 0.603 | 0.539 | 0.637 | 0.381 | 0.323
10 | ChaGo-K-1 | – | – | – | – | – | 0.892 | 0.93 | 0.84 | 0.886 | 0.635 | 0.948 | 0.933 | 0.897 | 0.785 | 0.64 | 0.426 | 0.425 | 0.497 | 0.358 | 0.331
11 | EBC-1 | 0.178 | 0.212 | 0.216 | 0.17 | 0.268 | – | – | – | – | – | – | – | – | – | – | 0.68 | 0.732 | 0.696 | 0.203 | 0.174
12 | EKVX | 0.189 | 0.181 | 0.221 | 0.215 | 0.207 | 0.9 | 0.869 | 0.747 | 0.709 | 0.578 | 0.364 | 0.344 | 0.261 | 0.252 | 0.227 | 0.766 | 0.829 | 0.825 | 0.73 | 0.386
13 | EMC-BAC-2 | 0.932 | 0.931 | 0.94 | 0.897 | 0.733 | 1.2 | 1.11 | 1.14 | 1.01 | 1.01 | 0.868 | 0.713 | 0.578 | 0.489 | 0.383 | 0.48 | 0.444 | 0.388 | 0.3 | 0.23
14 | EPLC-272H | 0.886 | 1.02 | 0.674 | 0.825 | 0.53 | 0.217 | – | 0.251 | 0.23 | 0.19 | 0.351 | 0.342 | 0.319 | 0.27 | 0.182 | 0.726 | 0.614 | 0.875 | 0.273 | 0.191
15 | H3255 | 0.241 | 0.238 | 0.23 | 0.238 | 0.293 | 0.923 | 0.959 | 0.856 | 0.859 | 0.7 | 0.681 | 0.57 | 0.528 | 0.402 | 0.295 | 0.606 | 0.51 | 0.454 | 0.364 | 0.308
16 | HARA | 0.749 | 0.699 | 0.803 | 0.707 | 0.502 | 0.382 | 0.41 | 0.305 | 0.403 | 0.359 | 0.903 | 0.983 | 0.696 | 0.647 | 0.48 | 0.761 | 0.944 | 0.675 | 0.876 | 0.314
17 | HCC-15 | 0.865 | 0.883 | 0.811 | 0.818 | 0.511 | 1.29 | 1.28 | 1.24 | 1.06 | 0.982 | 0.392 | 0.323 | 0.245 | 0.221 | 0.161 | 0.684 | 0.617 | 0.56 | 0.377 | 0.201
18 | HCC-44 | 1.1 | 1.07 | 1.09 | 1.06 | 0.631 | 0.907 | 1.05 | 1.04 | 0.991 | 1.14 | 1.07 | 0.895 | 0.81 | 0.735 | 0.625 | 0.957 | 0.906 | 0.93 | 0.875 | 0.7
